Reference: patent publication US10280159B2 (AbbVie Deutschland GmbH & Co. KG, priority 2015, dated 2019)
Structures can show the parent of a compound that is named as a salt. Where two headings read alike, the source gives them in different places.

How the values were obtained:
Type in all cases: cell-based
human S1PR5 = target: T1, human S1PR5 (Homo sapiens, UniProt Q9H228); experiment: Intracellular Ca2+ release (FLIPR) agonist potency, S1P5; settings: recombinant CHO-K1 cells expressing human S1PR5, aequorin, Gq/i5, Calcium 5 FLIPR
T1 construct: host or cells: CHO-K1
T1 sequence (Q9H228 whole entry): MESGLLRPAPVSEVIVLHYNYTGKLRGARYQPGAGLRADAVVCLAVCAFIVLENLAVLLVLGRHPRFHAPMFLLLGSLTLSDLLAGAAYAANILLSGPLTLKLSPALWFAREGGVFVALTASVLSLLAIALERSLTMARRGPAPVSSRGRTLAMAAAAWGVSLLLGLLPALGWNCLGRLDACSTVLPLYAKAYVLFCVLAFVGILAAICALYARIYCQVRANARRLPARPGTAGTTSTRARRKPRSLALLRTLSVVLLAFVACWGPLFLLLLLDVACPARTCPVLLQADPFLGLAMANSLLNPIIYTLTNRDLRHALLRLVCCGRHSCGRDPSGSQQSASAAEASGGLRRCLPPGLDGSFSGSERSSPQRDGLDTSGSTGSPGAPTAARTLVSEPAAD
Protocol: (§1) Agonistic activity was measured using the method described below.
(§2) Intracellular Ca^2+ Release
(§3) Agonist potency and intrinsic activity was assessed by measurement of intracellular Ca^2+ release. Recombinant CHO-K1 cells (Euroscreen, Brussels, Belgium) expressing human S1PR5, S1PR1, S1PR3 or S1PR4 receptors, aequorin, and GTP binding protein Gq/i5 were cultured using a medium containing nutrient mixture F-12 Ham (Sigma-Aldrich) with 10% FBS, and 100 μg/mL gentamicin and equilibrated at 5% CO2.
(§4) Phospho-fingolimod was used as positive control. Antagonists were pre-incubated for 10 min with cells before addition of the agonist (phospho-fingolimod at EC80). Measurements were performed using a fluorometric imaging plate reader FLIPR®tetra (Molecular Devices). Agonist at the human S1P receptors were characterized by deducing EC50 (potency) values from a nonlinear fit to the measured fluorescence raw data after normalization to the reference agonist (phospho-fingolimod) curve.

human S1PR1 = target: T2, human S1PR1 (Homo sapiens, UniProt P21453); experiment: Intracellular Ca2+ release (FLIPR) agonist potency, S1P1
T2 construct: host or cells: CHO-K1
T2 sequence (P21453 whole entry): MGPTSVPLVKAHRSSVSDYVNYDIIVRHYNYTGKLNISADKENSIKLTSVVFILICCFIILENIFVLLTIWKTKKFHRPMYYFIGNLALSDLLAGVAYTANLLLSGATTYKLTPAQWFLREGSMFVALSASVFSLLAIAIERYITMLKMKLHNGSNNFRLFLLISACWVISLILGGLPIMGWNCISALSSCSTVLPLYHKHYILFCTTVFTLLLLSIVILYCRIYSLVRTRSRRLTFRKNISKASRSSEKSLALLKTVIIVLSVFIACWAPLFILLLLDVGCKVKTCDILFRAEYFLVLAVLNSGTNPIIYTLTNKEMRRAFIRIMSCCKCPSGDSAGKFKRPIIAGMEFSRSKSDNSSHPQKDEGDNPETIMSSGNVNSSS
Protocol: as §1, §2, §3, §4

human S1PR4 = target: T3, human S1PR4 (Homo sapiens, UniProt O95977); experiment: Intracellular Ca2+ release (FLIPR) agonist potency, S1P4
T3 construct: host or cells: CHO-K1
T3 sequence (O95977 1-384): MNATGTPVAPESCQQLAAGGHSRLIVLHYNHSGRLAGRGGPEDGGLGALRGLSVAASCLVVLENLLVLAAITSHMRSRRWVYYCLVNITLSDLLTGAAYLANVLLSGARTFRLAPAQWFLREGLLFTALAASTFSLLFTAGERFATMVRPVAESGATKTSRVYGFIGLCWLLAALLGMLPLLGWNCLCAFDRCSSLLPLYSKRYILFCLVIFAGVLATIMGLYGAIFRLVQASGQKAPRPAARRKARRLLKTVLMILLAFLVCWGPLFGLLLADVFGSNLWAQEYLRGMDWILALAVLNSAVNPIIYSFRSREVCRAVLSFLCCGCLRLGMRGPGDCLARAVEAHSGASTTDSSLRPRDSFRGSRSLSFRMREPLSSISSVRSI
Protocol: as §1, §2, §3, §4

[1] = recombinant CHO-K1 cells expressing human S1PR1, aequorin, Gq/i5, Calcium 5 FLIPR, read-out: S1P1 EC50
[2] = recombinant CHO-K1 cells expressing human S1PR4, aequorin, Gq/i5, Calcium 5 FLIPR, read-out: S1P4 EC50

| EC50 (human S1PR5; read-out: S1P5 EC50 range) [nM] | EC50 (human S1PR1; [1]) [nM] | EC50 (human S1PR4; [2]) [nM] | Structure (SMILES) | EC50 (human S1PR5; S1P5 EC50 range) [nM] | EC50 (human S1PR1) [nM] | EC50 (human S1PR4) [nM] |
| --- | --- | --- | --- | --- | --- | --- |
| 10 to 100 | > 1000 | < 1000 | O=C(O)C1CCN(C2COc3cc(OCc4c(Cl)cccc4Cl)ccc3C2)CC1 (stereo not drawn) [Compound 110, 1-[7-[(2,6-dichlorophenyl)methoxy]chroman-3-yl]piperidine-4-carboxylic acid; Salt with 2,2,2-trifluoroacetic acid] | – | – | – |
| < 10 | < 1000 | < 1000 | CCc1cccc(Cl)c1COc1ccc2c(c1)OCC(N1CCC(C(=O)O)CC1)C2 (stereo not drawn) [Compound 111, 1-[7-[(2-chloro-6-ethyl-phenyl)methoxy]chroman-3-yl]piperidine-4-carboxylic acid; Salt with 2,2,2-trifluoroacetic acid] | – | – | – |
| 1000 to 10000 | > 1000 | < 1000 | O=C(O)C1CCN(C2COc3cc(OCc4ccccc4)ccc3C2)CC1 (stereo not drawn) [Compound 112, 1-(7-benzyloxychroman-3-yl)piperidine-4-carboxylic acid] | – | – | – |
| 100 to 1000 | > 1000 | > 1000 | O=C(O)CNC1COc2cc(OCC3CCCCC3)ccc2C1 (stereo not drawn) [Compound 113, 2-[[7-(cyclohexylmethoxy)chroman-3-yl]amino]acetic acid] | – | – | – |
| < 10 | > 1000 | < 1000 | CCc1cccc(Cl)c1COc1ccc2c(c1)OCC(NC1(CC(=O)O)CCCC1)C2 (stereo not drawn) [Compound 115, 2-(1-((7-((2-chloro-6-ethylbenzyl)oxy)chroman-3-yl)amino)cyclopentyl) acetic acid] | – | – | – |
| < 10 | > 1000 | < 1000 | CCc1cccc(Cl)c1COc1ccc2c(c1)OCC(NC1(CC(=O)O)CCC1)C2 (stereo not drawn) [Compound 116, 2-(1-((7-((2-chloro-6-ethylbenzyl)oxy)chroman-3-yl)amino)cyclobutyl)acetic acid] | – | – | – |
| 1000 to 10000 | > 1000 | > 1000 | O=C(O)C1(NC2COc3cc(OCc4c(Cl)cccc4Cl)ccc3C2)CCC1 (stereo not drawn) [Compound 119, 1-((7-((2,6-dichlorobenzyl)oxy)chroman-3-yl)amino)cyclobutane-1-carboxylic acid] | – | – | – |
| 10 to 100 | < 1000 | < 1000 | CCc1cccc(Cl)c1COc1ccc2c(c1)OCC(NC1(C(=O)O)CCC1)C2 (stereo not drawn) [Compound 120, 1-((7-((2-chloro-6-ethylbenzyl)oxy)chroman-3-yl)amino)cyclobutane-1-carboxylic acid] | – | – | – |
| 10 to 100 | > 1000 | < 1000 | CCc1cccc(F)c1COc1ccc2c(c1)OCC(NC13CC(C(=O)O)(C1)C3)C2 (stereo not drawn) [Compound 122, 3-((7-((2-ethyl-6-fluorobenzyl)oxy)chroman-3-yl)amino)bicyclo[1.1.1]pentane-1-carboxylic acid] | – | – | – |
| < 10 | > 1000 | < 1000 | CCc1cccc(F)c1COc1ccc2c(c1)OCC(NCC(=O)O)C2 (stereo not drawn) [Compound 126, (7-((2-ethyl-6-fluorobenzyl)oxy)chroman-3-yl)glycine] | – | – | – |
| < 10 | > 1000 | < 1000 | CCc1cccc(Cl)c1COc1ccc2c(c1)OCC(N1CCC(C(=O)O)C1)C2 (stereo not drawn) [Compound 128, 1-(7-((2-chloro-6-ethylbenzyl)oxy)chroman-3-yl)pyrrolidine-3-carboxylic acid] | – | – | – |
| < 10 | > 1000 | < 1000 | CCc1cccc(F)c1COc1ccc2c(c1)OCC(N1CCC(CC(=O)O)C1)C2 (stereo not drawn) [Compound 130, 2-(1-(7-((2-ethyl-6-fluorobenzyl)oxy)chroman-3-yl)pyrrolidin-3-yl)acetic acid] | – | – | – |
| < 10 | < 1000 | > 1000 | O=C(O)CNC1COc2cc(-c3ccc(OCc4cccc(F)c4F)cc3)ccc2C1 (stereo not drawn) [Compound 131, (7-(4-((2,3-difluorobenzyl)oxy)phenyl)chroman-3-yl)glycine] | – | – | – |
| < 10 | > 1000 | > 1000 | O=C(O)CNC1COc2cc(OCc3ccc(OCc4cccc(Cl)c4)cc3)ccc2C1 (stereo not drawn) [Compound 132, (7-((4-((3-chlorobenzyl)oxy)benzyl)oxy)chroman-3-yl)glycine] | – | – | – |
| 1000 to 10000 | > 1000 | > 1000 | CCC1(C(=O)O)CN([C@@H]2COc3cc(OCc4c(Cl)cccc4Cl)ccc3C2)C1 [Compound 140, (S)-1-(7-((2,6-dichlorobenzyl)oxy)chroman-3-yl)-3-ethylazetidine-3-carboxylic acid] | – | – | – |

The remaining lines, values behind:

| Structure (SMILES) | EC50 (human S1PR5; read-out: S1P5 EC50 range) [nM] | EC50 (human S1PR1; [1]) [nM] | EC50 (human S1PR4; [2]) [nM] | EC50 (human S1PR5; S1P5 EC50 range) [nM] | EC50 (human S1PR1) [nM] | EC50 (human S1PR4) [nM] |
| --- | --- | --- | --- | --- | --- | --- |
| O=C(O)CNC1COc2cc(OCCc3c(Cl)cccc3Cl)ccc2C1 (stereo not drawn) [Compound 114, 2-[[7-[2-(2,6-dichlorophenyl)ethoxy]chroman-3-yl]amino]acetic acid] | 1000 to 10000 | > 1000 | > 1000 | – | – | – |
| CCc1cccc(F)c1COc1ccc2c(c1)OCC(NC1(CC(=O)O)CCCC1)C2 (stereo not drawn) [Compound 117, 2-(1-((7-((2-ethyl-6-fluorobenzyl)oxy)chroman-3-yl)amino)cyclopentyl) acetic acid] | < 10 | > 1000 | < 1000 | – | – | – |
| CCc1cccc(F)c1COc1ccc2c(c1)OCC(NC1(CC(=O)O)CCC1)C2 (stereo not drawn) [Compound 118, 2-(1-((7-((2-ethyl-6-fluorobenzyl)oxy)chroman-3-yl)amino)cyclobutyl)acetic acid] | < 10 | > 1000 | < 1000 | – | – | – |
| CCc1cccc(Cl)c1COc1ccc2c(c1)OCC(NC13CC(C(=O)O)(C1)C3)C2 (stereo not drawn) [Compound 121, 3-((7-((2-chloro-6-ethylbenzyl)oxy)chroman-3-yl)amino)bicyclo[1.1.1]pentane-1-carboxylic acid] | 100 to 1000 | > 1000 | < 1000 | – | – | – |
| CCc1cccc(Cl)c1COc1ccc2c(c1)OCC(N(C)CC(=O)O)C2 (stereo not drawn) [Compound 124, N-(7-((2-chloro-6-ethylbenzyl)oxy)chroman-3-yl)-N-methylglycine] | < 10 | > 1000 | < 1000 | – | – | – |
| CCc1cccc(Cl)c1COc1ccc2c(c1)OCC(N1CCC(CC(=O)O)C1)C2 (stereo not drawn) [Compound 125, 2-(1-(7-((2-chloro-6-ethylbenzyl)oxy)chroman-3-yl)pyrrolidin-3-yl)acetic acid] | < 10 | > 1000 | < 1000 | – | – | – |
| CCc1cccc(F)c1COc1ccc2c(c1)OCC(N1CCC(C(=O)O)C1)C2 (stereo not drawn) [Compound 127, 1-(7-((2-ethyl-6-fluorobenzyl)oxy)chroman-3-yl)pyrrolidine-3-carboxylic acid] | < 10 | > 1000 | < 1000 | – | – | – |
| CCc1cccc(F)c1COc1ccc2c(c1)OCC(NC1(CC(=O)O)CC1)C2 (stereo not drawn) [Compound 129, 2-(1-((7-((2-ethyl-6-fluorobenzyl)oxy)chroman-3-yl)amino)cyclopropyl) acetic acid] | < 10 | > 1000 | > 1000 | – | – | – |
| CN(CC(=O)O)C1COc2cc(OCc3ccc(OCc4cccc(F)c4F)cc3)ccc2C1 (stereo not drawn) [Compound 133, N-(7-((4-((2,3-difluorobenzyl)oxy)benzyl)oxy)chroman-3-yl)-N-methylglycine] | < 10 | < 1000 | > 1000 | – | – | – |
| CN(CC(=O)O)C1COc2cc(OCc3ccc(OCc4cccc(Cl)c4)cc3)ccc2C1 (stereo not drawn) [Compound 134, N-(7-((4-((3-chlorobenzyl)oxy)benzyl)oxy)chroman-3-yl)-N-methylglycine] | < 10 | > 1000 | > 1000 | – | – | – |
| CN(CC(=O)O)C1COc2cc(OCc3ccc(OCc4ccc(Cl)cc4)cc3)ccc2C1 (stereo not drawn) [Compound 135, N-(7-((4-((4-chlorobenzyl)oxy)benzyl)oxy)chroman-3-yl)-N-methylglycine] | 10 to 100 | > 1000 | > 1000 | – | – | – |
| CCc1cccc(F)c1COc1ccc2c(c1)OC[C@@H](NCc1cc(O)no1)C2 [Compound 136, (S)-5-(((7-((2-ethyl-6-fluorobenzyl)oxy)chroman-3-yl)amino)methyl)isoxazol-3-ol] | – | – | – | < 10 | > 1000 | < 1000 |
| CC1(C(=O)O)CN([C@@H]2COc3cc(OCc4c(Cl)cccc4Cl)ccc3C2)C1 [Compound 138, (S)-1-(7-((2,6-dichlorobenzyl)oxy)chroman-3-yl)-3-methylazetidine-3-carboxylic acid] | < 10 | > 1000 | > 1000 | – | – | – |
| CCc1cccc(F)c1COc1ccc2c(c1)OC[C@@H](N1CC(C)(C(=O)O)C1)C2 [Compound 139, (S)-1-(7-((2-ethyl-6-fluorobenzyl)oxy)chroman-3-yl)-3-methylazetidine-3-carboxylic acid] | < 10 | > 1000 | < 1000 | – | – | – |
